Here are results for 23 compounds from US12060360B2, “Lysyl oxidase inhibitors” (The Institute of Cancer Research: Royal Cancer Hospital, priority 2017, dated 2024).

The assay deals with T1, LOX (Mus musculus, UniProt P28301).
T1 construct: Full length LOX cDNA was then PCR cloned into pEGFP-N1 (Clonetech), or biosensor vector proGFP2-N1; expressed in transfected cells; host or cells: MDCK cells grown as cysts on Matrigel, G418-selected
T1 sequence (P28301 163-411): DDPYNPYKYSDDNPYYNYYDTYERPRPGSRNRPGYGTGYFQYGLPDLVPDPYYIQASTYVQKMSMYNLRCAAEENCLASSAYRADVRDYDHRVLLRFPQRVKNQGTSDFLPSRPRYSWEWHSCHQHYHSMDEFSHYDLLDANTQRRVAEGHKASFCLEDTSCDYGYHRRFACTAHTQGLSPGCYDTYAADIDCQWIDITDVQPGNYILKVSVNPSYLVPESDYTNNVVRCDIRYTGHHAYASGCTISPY
Description: LOX activity in cysts assay (LOX-roGFP2 biosensor, MDCK cysts). Type of assay: cell-based. The following applies: for inhibition at 2.5 µM: 2.5 uM (stated in cell), read-out: LOX biosensor inhibition (cyst) @ 2.5 uM; for inhibition at 2.5 µM / inhibition at 10 µM / IC50: MDCK cysts; for inhibition at 2.5 µM / inhibition at 10 µM: DMSO = 0%, BAPN 1 mM = 100% inhibition; for inhibition at 10 µM: inhibitor added 30 min prior to imaging, read-out: LOX biosensor inhibition (cyst) @ 10 uM; for IC50: roGFP2 ratio at basal surface, read-out: LOX biosensor IC50 (cyst). The procedure: LOX Activity in Cysts Assay (Tang et al, 2017).
All cell lines used in this study were purchased from American Type Culture Collection (ATCC). Mycoplasma contamination was routinely monitored by PCR. Cells used were not found to be Mycoplasma positive. MDCK cell lines were cultured in Dulbecco's Modified Eagle Medium (DMEM) supplemented with 10% fetal bovine serum (FBS) and 1% Penicillin Streptomycin solution (Pen Strep). For GFP constructs transfection in MDCK cells, lipofectamine 3000 was used according to manufactures protocols. Cells were either selected with G418 (Life Technologies) at 5 mg/ml. All cell culture reagents were purchased from Life Technologies.
To produce MDCK cysts, cells were cultured on Matrigel (Corning) with 2% Matrigel supplemented in DMEM with 10% FBS. Cysts were allowed to form for 10 days before subsequent studies.
Mouse LOX cDNA was purchased from OriGene. Full length LOX cDNA was then PCR cloned into pEGFP-N1 (Clonetech), or biosensor vector proGFP2-N1 (Hanson, 2004) using the following primers, […] (forward primer) and […] (reverse primer). For the insertion into pEGFP-N1 or proGFP2-N1, NheI and XhoI restriction sites were added to forward and reverse primers accordingly. Mutant LOX constructs were made using QuickChange II site-directed mutagenesis kit (Agilent Technologies) following manufacture's protocol using LOX-GFP as template. To generate, roGFP2 versions of LOX mutant constructs, LOX mutant cDNA was transferred from pEGFP-N1 to proGFP2-N1 using NheI and XhoI.
All photomicrographs were taken with a Leica TCS SP8 X confocal system. For LOX biosensor imaging, live MDCK cysts were used. The oxidised biosensor was excited using a 405 nm laser, while the reduced biosensor was excited with a 488 nm laser. Emission of the biosensor was recorded at 500 nm˜530 nm range using sequential scans. Ratio images were generated following a published protocol {Kardash, 2011 #376}. Note, while the published protocol generates YFP/CFP ratio images, we used it to generate Oxidised/Reduced (roGFP2 ratio) ratio images. The roGFP2 ratio at the basal surface of MDCK cysts was used to indicate LOX inhibition. LOX inhibitors were added 30 min prior to imaging.
For clarity, readout for DMSO treated cysts represents 0% inhibition (no inhibition) and readout for BAPN at 1 mM is used as 100% inhibition (full inhibition).

For the compound `CCOc1ccc(N2C[C@H]3CN(C(=O)N4CCC(C#N)CC4)C[C@@H]2C(C)(C)C3)cc1` [Example 17, 1-((1S,5S)-6-(4-ethoxyphenyl)-9,9-dimethyl-3,6-diazabicyclo[3.2.2]nonane-3-carbonyl)piperidine-4-carbonitrile], the inhibition at 2.5 µM amounted to 77%.

As for `CC1(C)C[C@@H]2CN(C(=O)NCCO)C[C@H]1N(c1ccc(N3CCC(F)(F)CC3)cc1)C2` [Example 30, (1S,5S)-6-(4-(4,4-difluoropiperidin-1-yl)phenyl)-N-(2-hydroxyethyl)-9,9-dimethyl-3,6-diazabicyclo[3.2.2]nonane-3-carboxamide], the inhibition at 10 µM is 100% and the 50% inhibitory concentration (IC50) worked out at 330 nM.

In the case of `CC1(C)C[C@@H]2CN(C(=O)NC3CCS(=O)(=O)CC3)C[C@H]1N(c1ccc(N3CCS(=O)(=O)CC3)cc1)C2` [Example 11, (1S,5S)-N-(1,1-dioxidotetrahydro-2H-thiopyran-4-yl)-6-(4-(1,1-dioxidothiomorpholino)phenyl)-9,9-dimethyl-3,6-diazabicyclo[3.2.2]nonane-3-carboxamide], the inhibition at 10 µM is 100%.

With `CC1(C)C[C@@H]2CN(C(=O)NCCO)C[C@H]1N(c1ccc(N3CCCCC3)cc1)C2` [Example 32, (1S,5S)-N-(2-hydroxyethyl)-9,9-dimethyl-6-(4-(piperidin-1-yl)phenyl)-3,6-diazabicyclo[3.2.2]nonane-3-carboxamide], the inhibition at 10 µM was found to be 90% and the IC50 is less than 180 nM.

With `CC1(C)C[C@@H]2CN(C(=O)NCCO)C[C@H]1N(c1ccc(N3CCS(=O)(=O)CC3)cc1)C2` [Example 5, (1S,5S)-6-(4-(1,1-dioxidothiomorpholino)phenyl)-N-(2-hydroxyethyl)-9,9-dimethyl-3,6-diazabicyclo[3.2.2]nonane-3-carboxamide], the inhibition at 10 µM was 62%.

For the compound `CC1(C)C[C@@H]2CN(c3ccc(N4CCS(=O)(=O)CC4)cc3)[C@H]1CCN2C(=O)N1CCS(=O)(=O)CC1` [Example 9, (1,1-dioxidothiomorpholino)((1R,5S)-6-(4-(1,1-dioxidothiomorpholino)phenyl)-9,9-dimethyl-2,6-diazabicyclo[3.2.2]nonan-2-yl)methanone], the inhibition at 10 µM came to 100% and the IC50 is 690 nM.

For `C#CCCCN1C[C@@H]2CN(c3ccc(OCC)cc3)[C@H](C1)C(C)(C)C2` [Example 44, (1R,5S)-6-(4-ethoxyphenyl)-9,9-dimethyl-3-(pent-4-yn-1-yl)-3,6-diazabicyclo[3.2.2]nonane], the inhibition at 2.5 µM was found to be 66% and the IC50 was determined as 310 nM.

With `C#CCN1C[C@@H]2CN(c3ccc(OCC)cc3)[C@H](C1)C(C)(C)C2` [Example 41, (1R,5S)-6-(4-ethoxyphenyl)-9,9-dimethyl-3-(prop-2-yn-1-yl)-3,6-diazabicyclo[3.2.2]nonane], the inhibition at 10 µM was 87%.

With `CCOc1ccc(N2C[C@H]3CN(CCCC#N)C[C@@H]2C(C)(C)C3)cc1F` [Example 45, 4-((1R,5S)-6-(4-Ethoxy-3-fluorophenyl)-9,9-dimethyl-3,6-diazabicyclo[3.2.2]nonan-3-yl)butanenitrile], the inhibition at 10 µM was determined as 42%.

`CCOc1cccc(N2C[C@H]3CN(C(=O)NCCO)C[C@@H]2C(C)(C)C3)c1` [Example 24, (1S,5S)-6-(3-ethoxyphenyl)-N-(2-hydroxyethyl)-9,9-dimethyl-3,6-diazabicyclo[3.2.2]nonane-3-carboxamide]: the inhibition at 10 µM worked out at 100% and the IC50 is less than 630 nM.

For the compound `CCOc1ccc(N2C[C@H]3CN(Cc4ccc(Cl)cc4)C[C@@H]2C(C)(C)C3)cc1` [Example 40, (1R,5S)-3-(4-chlorobenzyl)-6-(4-ethoxyphenyl)-9,9-dimethyl-3,6-diazabicyclo[3.2.2]nonane], the inhibition at 10 µM was 68%.

Turning to `CCOc1ccc(N2C[C@H]3CN(C(=O)Nc4ccc(OC)cc4)C[C@@H]2C(C)(C)C3)cc1` [Example 1, (1S,5S)-6-(4-ethoxyphenyl)-N-(4-methoxyphenyl)-9,9-dimethyl-3,6-diazabicyclo[3.2.2]nonane-3-carboxamide], the inhibition at 10 µM was 91%.

`CCOc1ccc(N2C[C@@H]3CC4(CCCCC4)[C@H]2CCN3C(=O)NCCO)cc1` [Example 23, (1S,5R)-6-(4-ethoxyphenyl)-N-(2-hydroxyethyl)-2,6-diazaspiro[bicyclo[3.2.2]nonane-9,1′-cyclohexane]-2-carboxamide]: the inhibition at 10 µM worked out at 100% and the IC50 came to 370 nM.

For `CC1(C)C[C@@H]2CN(C(=O)NCCO)C[C@H]1N(c1ccc(Oc3ccccn3)cc1)C2` [Example 28, (1S,5S)-N-(2-hydroxyethyl)-9,9-dimethyl-6-(4-(pyridin-2-yloxy)phenyl)-3,6-diazabicyclo[3.2.2]nonane-3-carboxamide], the inhibition at 10 µM was determined as 100%.

`N#CCCN` [BAPN, β-aminopropionitrile, reference compound]: the “LOX inhibition in cysts assay (reference used as full inhibition)” value (1 mM, readout used as 100% inhibition) is on record as 100%.

As to `CCOc1ccc(N2C[C@H]3CN(C(=O)Nc4cc(C)n[nH]4)C[C@@H]2C(C)(C)C3)cc1` [Example 25, (1S,5S)-6-(4-ethoxyphenyl)-9,9-dimethyl-N-(3-methyl-1H-pyrazol-5-yl)-3,6-diazabicyclo[3.2.2]nonane-3-carboxamide], the inhibition at 10 µM was 73%.

`CCOc1ccc(N2C[C@H]3CN(C4CCN(C)CC4)C[C@@H]2C(C)(C)C3)cc1` [Example 47, (1R,5S)-6-(4-ethoxyphenyl)-9,9-dimethyl-3-(1-methylpiperidin-4-yl)-3,6-diazabicyclo[3.2.2]nonane]: the inhibition at 10 µM turned out to be 90%.

In the case of `CCOc1ccc(N2C[C@H]3CN(C(=O)NC[C@@H](O)CO)C[C@@H]2C(C)(C)C3)cc1` [Example 19, (1S,5S)-N-((R)-2,3-dihydroxypropyl)-6-(4-ethoxyphenyl)-9,9-dimethyl-3,6-diazabicyclo[3.2.2]nonane-3-carboxamide], the inhibition at 10 µM was found to be 100%.

`CCOc1ccc(N2C[C@H]3CC(C)(C)[C@@H]2CCN3C(=O)NCCO)cc1` [Example 22, (1R,5S)-6-(4-ethoxyphenyl)-N-(2-hydroxyethyl)-9,9-dimethyl-2,6-diazabicyclo[3.2.2]nonane-2-carboxamide]: the inhibition at 10 µM is 100%.

Consider `CCOc1ccc(N2C[C@@H]3CN(C(=O)NCCO)C[C@H]2C(C)(C)C3)cc1` [Example 21, (1R,5R)-6-(4-ethoxyphenyl)-N-(2-hydroxyethyl)-9,9-dimethyl-3,6-diazabicyclo[3.2.2]nonane-3-carboxamide], for which the inhibition at 10 µM turned out to be 94%.

`CCOc1ccc(N2C[C@H]3CN(C(=O)CCc4cccnc4)C[C@@H]2C(C)(C)C3)cc1` [Example 52, 1-((1S,5S)-6-(4-ethoxyphenyl)-9,9-dimethyl-3,6-diazabicyclo[3.2.2]nonan-3-yl)-3-(pyridin-3-yl)propan-1-one]: the inhibition at 10 µM worked out at 100%.

Regarding `COc1cc(OC)cc(N2C[C@H]3CN(C(=O)N4CCS(=O)(=O)CC4)C[C@@H]2C(C)(C)C3)c1` [Example 65, ((1S,5S)-6-(3,5-dimethoxyphenyl)-9,9-dimethyl-3,6-diazabicyclo[3.2.2]nonan-3-yl)(1,1-dioxidothiomorpholino)methanone], the inhibition at 10 µM was found to be 88%.

For `CCOc1ccc(N2C[C@H]3CN(C(=O)N(CCO)CCO)C[C@@H]2C(C)(C)C3)cc1` [Example 14, (1S,5S)-6-(4-ethoxyphenyl)-N,N-bis(2-hydroxyethyl)-9,9-dimethyl-3,6-diazabicyclo[3.2.2]nonane-3-carboxamide], the inhibition at 10 µM was 75%.
